Laboratory results taken from US8586566B2, “Unsaturated heterocyclic derivatives” (ARIAD Pharmaceuticals, Inc., priority 2005, dated 2013).

| melting point | Compound |
| --- | --- |
| 160 to 162 °C | Cc1ccc(NC(=O)Nc2cccc(C(F)(F)F)c2)cc1/C=C/n1cnc2c(NC3CC3)ncnc21 [Example 6, (E)-1-(3-(2-(6-(Cyclopropylamino)-9H-purin-9-yl)vinyl)-4-methylphenyl)-3-(3-(trifluoromethyl)phenyl)urea] |
| 230 to 234 °C | Cc1ccc(NC(=O)c2cccc(C(F)(F)F)c2)cc1/C=C/n1cnc2c(Nc3ccc(P(C)(C)=O)cc3)ncnc21 [Example 3, (E)-N-(3-(2-(6-(4-(Dimethylphosphoryl)phenylamino)-9H-purin-9-yl)vinyl)-4-methylphenyl)-3-(trifluoromethyl)benzamide] |
| 201 °C | Cc1ccc(C(=O)Nc2cccc(C(F)(F)F)c2)cc1/C=C/n1cnc2c(NC3CC3)ncnc21 [Example 5, (E)-3-(2-(6-(Cyclopropylamino)-9H-purin-9-yl)vinyl)-4-methyl-N-(3-(trifluoromethyl)phenyl)benzamide] |
